Measurements from article PMC10747250, “Structure-Based Optimization of 1,2,4-Triazole-3-Thione Derivatives: Improving Inhibition of NDM-/VIM-Type Metallo-β-Lactamases and Synergistic Activity on Resistant Bacteria” (Pharmaceuticals, 2023).
Several values for one entry are separate records, joined by “and”; a condition that tells them apart may be missing. Identical values can stand only once. Like-named read-outs stand apart in the source and are kept apart here.

Legend:
[1] = target: T1, NDM-1 (Klebsiella pneumoniae, UniProt C7C422); assay: NDM-1 spectrophotometric enzyme inhibition assay (meropenem hydrolysis); format: biochemical; design: inhibition: dose or concentration left out as unconfirmed; conditions: for inhibition: 5 min, read-out: % Inib vs NDM-1; for IC50: substrate MEM 57 μM, 5 min incubation, triplicate, NI: no inhibition (<30% inhibition at 100 µM); for IC50 / Ki: 25 °C; for Ki: substrate MEM; for NDM-1 inhibitory activity: at 100 μM
T1 construct: made in house; host or cells: E. coli BL21(DE3)
T1 sequence (C7C422 29-270, looked up, species assumed): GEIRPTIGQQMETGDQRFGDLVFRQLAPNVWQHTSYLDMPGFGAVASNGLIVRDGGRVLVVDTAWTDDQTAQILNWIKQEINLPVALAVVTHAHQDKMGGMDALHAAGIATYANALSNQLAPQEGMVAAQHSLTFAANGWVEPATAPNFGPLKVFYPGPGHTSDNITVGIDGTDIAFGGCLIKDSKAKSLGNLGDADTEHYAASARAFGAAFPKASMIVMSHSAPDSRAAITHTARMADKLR
Experimental: (§1) The synthesized compounds were all tested for their inhibitory activity against targeted MBLs using a spectrophotometric assay (Table S2). After an initial validation at fixed concentration, compounds yielding > 0% inhibition were profiled in dose–response experiments to determine their IC50. The IC50 values were determined by measuring the rate of hydrolysis of the reporter substrate meropenem MEM ([S] = 57 μM; Km = 63.4 μM) in the presence of five different inhibitor concentrations. Assays were run after a 5 min incubation. The Ki was either calculated by the Cheng–Prusoff equation assuming competitive inhibition, or, for selected inhibitors, fully determined with Dixon plots (Figure S1).
(§2) The percentage of inhibition (%Inh) of 1,2,4-triazole derivatives was determined against a panel of subclass B1 MBLs (NDM-1, VIM-1, VIM-2, and IMP-1). Each compound was initially tested at a fixed concentration for inhibitory activity vs. the targeted enzymes. For the best active inhibitors, half-maximal inhibitory concentration (IC50) and Ki values were determined. Reactions were monitored using a Jasco V-730 spectrophotometer ( JASCO EUROPE S.R.L. Via Luigi Cadorna 1 23894 Cremella (LC) Italy) using nitrocefin or meropenem as reported substrates. Compounds were dissolved in dimethyl sulfoxide (DMSO) and stored at −20 °C. For VIM-1, VIM-2, and IMP-1MBLs, assays were conducted in 20 mM of HEPES, 100 mM of NaCl, and ZnSO4 at 10 µM at pH 7.4 at 25 °C with 0.01% v/v Triton X-100 to avoid compound aggregation and promiscuous inhibition. For NDM-1, assays were conducted in 20 mM of TRIS HCl + 150 mM of NaCl at pH 7.5 at 25°C with 0.01% v/v Triton X-100 to avoid aggregation.
(§3) For all targeted proteins, the reaction was typically initiated by adding the substrate to the reaction buffer last, after a 5 min preincubation. After brief shaking, the reading was performed for a total kinetic time of 240 s at 25 °C. The IC50 values were determined by measuring the rate of hydrolysis of the reporter substrate in the presence of five different inhibitor concentrations. The binding affinity Ki was generally estimated from the determined IC50 using the Cheng–Prusoff equation as per competitive inhibition. For the best inhibitors, the mechanism of inhibition and Ki were determined with a Dixon plot (CP 22, CP 35, CP 56, and CP 57 against NDM-1; compound CP 57 against VIM-2).

[2] = target: VIM-1 (Pseudomonas aeruginosa, UniProt A0A0F7KYQ8); assay: VIM-1 spectrophotometric enzyme inhibition assay (nitrocefin hydrolysis); format: biochemical; design: dose or concentration left out as unconfirmed; conditions: 5 min, read-out: % Inib vs VIM-1
Experimental: as §1, §2
Table S2. The inhibitory activity of 4-amino-4H-1,2,4-triazole-3-thiol derivatives discussed here. […]
Tests were conducted at 25° C by following the absorbance variation observed upon reporter substrate (Meropenem 57 μM for NDM-1, 17 μM for VIM-2) or Nitrocefin (23 μM for VIM-1). The percentage of inhibition is reported except when ≤ 15% and in this case is indicated by NI “no inhibition”. Compounds concentration was […] vs NDM-1. Assays were run after a 5-minutes incubation. […]

[3] = target: VIM-2 (Escherichia coli, UniProt Q5U7L7); assay: VIM-2 spectrophotometric enzyme inhibition assay (meropenem hydrolysis); format: biochemical; conditions: 25 °C; for % Inib vs VIM-2: meropenem 17 μM, 5 min incubation, NI = no inhibition (≤15%)
Experimental: as §1, with “The IC50 values were determined by measuring the rate of hydrolysis of the reporter substrate meropenem MEM ([S] = 57 μM; Km = 63.4 μM) in the presence of five different inhibitor concentrations.” left out
as §2, §3

[4] = system: K. pneumoniae VA-416/02 (VIM-4); assay: Synergy with meropenem, broth microdilution MIC; format: cell-based
Experimental: (§4) The potential synergistic activity of the three best inhibitors (CP 35, CP 56, and CP 57) was tested using the broth microdilution method on six MBL-producing multidrug-resistant clinical isolates. […] Although apparently modest, this increase in synergistic activity represents a significant improvement over the previous generation of triazole-thione β-lactamase inhibitors previous described by our group.

[5] = system: P. aeruginosa VA-182/00 (VIM-2); assay: Synergy with meropenem, broth microdilution MIC; format: cell-based, Pseudomonas aeruginosa
Experimental: as §4

[6] = system: six MBL-producing multidrug-resistant clinical isolates; assay: Growth inhibition by the compound tested alone; format: cell-based; conditions: 32 μg/mL, without MEM
Experimental: as §4

[7] = system: K. pneumoniae SI-1072 (NDM-1); assay: Synergy with meropenem, broth microdilution MIC; format: cell-based
Experimental: as §4

[8] = system: K. pneumoniae SI-518 (NDM-1); assay: Synergy with meropenem, broth microdilution MIC; format: cell-based
Experimental: as §4

[9] = target: MBLs; design: method as in PMID 36450011, PMID 31871094, PMID 32482673; conditions: cited from earlier work
[10] = Ki determined with Dixon plots, read-out: NDM-1 Ki (Dixon plots)
[11] = compound 32 μg/mL, VIM-4-producing K. pneumoniae
[12] = Ki calculated from IC50 as per competitive inhibition (Cheng–Prusoff), read-out: NDM-1 Ki (calculated from IC50)
[13] = compound 32 μg/mL, NDM-1-producing K. pneumoniae (strain not given)
[14] = Klebsiella pneumoniae, MEM alone (Cpd: None)

FC(F)(F)c1ccccc1/C=N/n1cnnc1S [CP 17, (E)-4-((2-(Trifluoromethyl)benzylidene)amino)-4H-1,2,4-triazole-3-thiol]
inhibition [1]: 51%
IC50 [1]: > 100 µM and 226 µM
inhibition [2]: 46%

Sc1nncn1/N=C/c1cccc2ccccc12 [CP 18, (E)-4-((Naphthalen-1-ylmethylene)amino)-4H-1,2,4-triazole-3-thiol]
inhibition [1]: > 100%
IC50 [1]: 52 ± 7.5 µM
inhibition [2]: 33%

COc1ccc(/C=N/n2cnnc2S)cc1 [CP 19, (E)-4-((4-Methoxybenzylidene)amino)-4H-1,2,4-triazole-3-thiol]
inhibition [1]: 24%
inhibition [2]: 15%

COc1cccc(/C=N/n2cnnc2S)c1 [CP 20, (E)-4-((3-Methoxybenzylidene)amino)-4H-1,2,4-triazole-3-thiol]
inhibition [1]: 40%
inhibition [2]: 14%

COc1ccccc1/C=N/n1cnnc1S [CP 21, (E)-4-((2-Methoxybenzylidene)amino)-4H-1,2,4-triazole-3-thiol]
inhibition [1]: 38%
inhibition [2]: 32%

Sc1nncn1/N=C/c1cccc(Br)c1 [CP 22, (E)-4-((3-Bromobenzylidene)amino)-4H-1,2,4-triazole-3-thiol]
inhibition [1]: 68%
IC50 [1]: 88.5 ± 3.7 µM
Ki [1, 10]: 42.7 µM
inhibition [2]: 46%

Sc1nncn1/N=C/c1ccccc1Br [CP 23, (E)-4-((2-Bromobenzylidene)amino)-4H-1,2,4-triazole-3-thiol]
inhibition [1]: 67%
IC50 [1]: 83 ± 3.3 µM

Sc1nncn1/N=C/c1ccc(Br)cc1 [CP 24, (E)-4-((4-Bromobenzylidene)amino)-4H-1,2,4-triazole-3-thiol]
inhibition [1]: 64%
IC50 [1]: 83.1 ± 2.7 µM
inhibition [2]: 28%

O=C(O)c1ccccc1/C=N/n1cnnc1S [CP 29, (E)-2-(((3-Mercapto-4H-1,2,4-triazol-4-yl)imino)methyl)benzoic acid]
NDM-1 inhibitory activity [1]: no inhibitory activity
IC50 [1]: > 100 µM
inhibition [2]: 17%

O=C(O)c1ccc(/C=N/n2cnnc2S)cc1 [CP 30, (E)-4-(((3-Mercapto-4H-1,2,4-triazol-4-yl)imino)methyl)benzoic acid]
NDM-1 inhibitory activity [1]: no inhibitory activity
IC50 [1]: > 100 µM
inhibition [2]: 18%

N#Cc1ccccc1/C=N/n1cnnc1S [CP 31, (E)-2-(((3-Mercapto-4H-1,2,4-triazol-4-yl)imino)methyl)benzonitrile]
inhibition [1]: 10%

Sc1nncn1/N=C/c1ccccn1 [CP 32, (E)-4-((Pyridin-2-ylmethylene)amino)-4H-1,2,4-triazole-3-thiol]
inhibition [1]: 20%
inhibition [2]: 17%

FC(F)(F)c1nnc(S)n1/N=C/c1cccc(Br)c1 [CP 35, (E)-4-((3-Bromobenzylidene)amino)-5-(trifluoromethyl)-4H-1,2,4-triazole-3-thiol]
Ki [1, 10]: 25.8 µM
% Inib vs VIM-2 [3]: 53%
synergistic activity with MEM [4, 11]: no synergistic activity at all
synergistic activity with MEM ([5]; compound 32 μg/mL, VIM-2 P. aeruginosa): no synergistic activity at all
growth inhibition, compound tested alone [6]: no growth inhibition

O=C(O)c1ccccc1/C=N/n1c(S)nnc1C(F)(F)F [CP 45, (E)-2-(((3-Mercapto-5-(trifluoromethyl)-4H-1,2,4-triazol-4-yl)imino)methyl)benzoic acid]
Ki [1, 12]: 83 µM

FC(F)(F)c1nnc(S)n1/N=C/c1nn[nH]n1 [CP 46, (E)-4-(((2H-Tetrazol-5-yl)methylene)amino)-5-(trifluoromethyl)-4H-1,2,4-triazole-3-thiol]
% Inib vs VIM-2 [3]: 42%

FC(F)(F)c1ccc(-c2nnc(S)n2/N=C/c2cccc(Br)c2)cc1 [CP 55, (E)-4-((3-Bromobenzylidene)amino)-5-(4-(trifluoromethyl)phenyl)-4H-1,2,4-triazole-3-thiol]
Ki [1, 12]: 220 µM

O=C(O)c1cccc(/C=N/n2c(S)nnc2-c2ccc(C(F)(F)F)cc2)c1 [CP 56, (E)-3-(((3-Mercapto-5-(4-(trifluoromethyl)phenyl)-4H-1,2,4-triazol-4-yl)imino)methyl)benzoic acid]
% Inib vs VIM-2 [3]: 42%
synergistic activity with MEM [4, 11]: detectable synergistic effect
growth inhibition, compound tested alone [6]: no growth inhibition

O=C(O)c1ccccc1/C=N/n1c(S)nnc1-c1ccc(C(F)(F)F)cc1 [CP 57, (E)-2-(((3-Mercapto-5-(4-(trifluoromethyl)phenyl)-4H-1,2,4-triazol-4-yl)imino)methyl)benzoic acid]
Ki [1, 10]: 5.59 µM and 5.6 µM
% Inib vs VIM-2 [3]: > 100%
Ki ([3]; substrate MEM, Ki determined with Dixon plot, read-out: VIM-2 Ki (Dixon plots)): 4.14 µM and 4.1 µM
reduction of meropenem MIC [7, 13]: four-fold
reduction of meropenem MIC [8, 13]: four-fold
reduction of meropenem MIC [4, 11]: four-fold
synergistic activity with MEM [4, 11]: detectable synergistic effect
growth inhibition, compound tested alone [6]: no growth inhibition

FC(F)(F)c1ccc(-c2nnc(S)n2/N=C/c2nn[nH]n2)cc1 [CP 58, (E)-4-(((2H-Tetrazol-5-yl)methylene)amino)-5-(4-(trifluoromethyl)phenyl)-4H-1,2,4-triazole-3-thiol]
% Inib vs VIM-2 [3]: 53%

C[C@@H](O)[C@H]1C(=O)N2C(C(=O)O)=C(S[C@@H]3CN[C@H](C(=O)N(C)C)C3)[C@H](C)[C@H]12 [MEM, meropenem, reference compound]
MIC [7, 14]: 128 µg/mL
MIC [8, 14]: 128 µg/mL
MIC [4, 14]: 16 µg/mL
MIC ([5]; Pseudomonas aeruginosa, MEM alone (Cpd: None)): 256 µg/mL

O=C(O)c1c(F)ccc2c1OB(O)[C@@H]1C[C@H]21 [QPX7728]
Ki values [9]: low nanomolar range

NCCN[C@H]1CC[C@H](CC(=O)N[C@H]2Cc3cccc(C(=O)O)c3OB2O)CC1 [taniborbactam]
Ki values [9]: low nanomolar range
